In PubChem BioAssay AID2060882 (Molecular Pharmacology Branch, DTP, NCI, 2025):

Tested on: 898857-211-R-J1-PDC complex spheroids, growth % test/control
Test: Anticancer human tumor 898857-211-R-J1-PDC patient-derived melanoma cell line growth inhibition [RAS]
Details: for IC50: curve of first compound; for viability, T/C: stronger effect = lower value; active means viability on the fitted dose curve at most 10% of control; inactive means the rest
Summary of the method: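 Multi-cell-type spheroids: tumor cells plus HUVEC endothelial cells and mesenchymal stem cells. RAS-pathway inhibitors were combined with targeted agents, each dosed in half-log steps down from clinical Cmax, or from 10 microM when Cmax was unknown.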

[1] = second compound 0.00316 µM, first compound 0.0316 µM
[2] = second compound 0.00316 µM, first compound 0.1 µM
[3] = second compound 0.00316 µM, first compound 0.316 µM
[4] = second compound 0.00316 µM, first compound 1 µM
[5] = second compound 0.00316 µM, first compound 3.16 µM
[6] = second compound 0.00316 µM, first compound 10 µM
[7] = second compound 0.01 µM, first compound 0.0316 µM
[8] = second compound 0.01 µM, first compound 0.1 µM
[9] = second compound 0.01 µM, first compound 0.316 µM
[10] = second compound 0.01 µM, first compound 1 µM
[11] = second compound 0.01 µM, first compound 3.16 µM
[12] = second compound 0.01 µM, first compound 10 µM
[13] = second compound 0.0316 µM, first compound 0.0316 µM
[14] = second compound 0.0316 µM, first compound 0.1 µM
[15] = second compound 0.0316 µM, first compound 0.316 µM
[16] = second compound 0.0316 µM, first compound 1 µM
[17] = second compound 0.0316 µM, first compound 3.16 µM
[18] = second compound 0.0316 µM, first compound 10 µM
[19] = second compound 0.1 µM, first compound 0.0316 µM
[20] = second compound 0.1 µM, first compound 0.1 µM
[21] = second compound 0.1 µM, first compound 0.316 µM
[22] = second compound 0.1 µM, first compound 1 µM
[23] = second compound 0.1 µM, first compound 3.16 µM
[24] = second compound 0.1 µM, first compound 10 µM
[25] = second compound 0.316 µM, first compound 0.0316 µM
[26] = second compound 0.316 µM, first compound 0.1 µM
[27] = second compound 0.316 µM, first compound 0.316 µM
[28] = second compound 0.316 µM, first compound 1 µM
[29] = second compound 0.316 µM, first compound 3.16 µM
[30] = second compound 0.316 µM, first compound 10 µM
[31] = second compound 1 µM, first compound 0.0316 µM
[32] = second compound 1 µM, first compound 0.1 µM
[33] = second compound 1 µM, first compound 0.316 µM
[34] = second compound 1 µM, first compound 1 µM
[35] = second compound 1 µM, first compound 3.16 µM
[36] = second compound 1 µM, first compound 10 µM
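Further: spheroids exposed to compound for seven days before readout.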
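Wherever viability, T/C is given: 100% = DMSO vehicle control wells.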

CC(=O)OC12COC1CC(O)C1(C)C(=O)C(O)C3=C(C)C(OC(=O)C(O)C(NC(=O)OC(C)(C)C)c4ccccc4)CC(O)(C(OC(=O)c4ccccc4)C21)C3(C)C (stereo unspecified) + C=CC(=O)N1CCN(c2nc(OCC3CCCN3C)nc3c(F)c(-c4nc(N)cc(C)c4C(F)(F)F)c(Cl)cc23)C(C)C1
inactive: viability, T/C [1] 12.3% | viability, T/C [2] 15.6% | viability, T/C [3] 14.2% | viability, T/C [4] 15.5% | viability, T/C [5] 21.2% | viability, T/C [6] 20.4% | viability, T/C [7] 12% | viability, T/C [8] 13.7% | viability, T/C [9] 10.5% | viability, T/C [10] 14.5% | viability, T/C [11] 21.1% | viability, T/C [12] 19.6% | viability, T/C [13] 13.1% | viability, T/C [14] 13.1% | viability, T/C [15] 14.3% | viability, T/C [16] 14.8% | viability, T/C [17] 24.2% | viability, T/C [18] 20% | viability, T/C [19] 11.5% | viability, T/C [20] 15.1% | viability, T/C [21] 14.3% | viability, T/C [22] 16.5% | viability, T/C [23] 16.2% | viability, T/C [24] 19.9% | viability, T/C [25] 12.8% | viability, T/C [26] 15.5% | viability, T/C [27] 14.2% | viability, T/C [28] 16.9% | viability, T/C [29] 14.7% | viability, T/C [30] 21.1% | viability, T/C [31] 12% | viability, T/C [32] 13.3% | viability, T/C [33] 12.1% | viability, T/C [34] 15.4% | viability, T/C [35] 19.4% | viability, T/C [36] 15.2%
< 31.6 nM: IC50 (second compound 0.00316 µM) | IC50 (second compound 0.01 µM) | IC50 (second compound 0.0316 µM) | IC50 (second compound 0.1 µM) | IC50 (second compound 0.316 µM) | IC50 (second compound 1 µM)

NC1c2ccccc2OC12CCN(c1cnc3c(N4CCCc5ncccc54)n[nH]c3n1)CC2 (stereo unspecified) + C=CC(=O)N1CCN(c2nc(OCC3CCCN3C)nc3c(F)c(-c4nc(N)cc(C)c4C(F)(F)F)c(Cl)cc23)C(C)C1
> 10000 nM: IC50 (second compound 0.00316 µM) | IC50 (second compound 0.01 µM) | IC50 (second compound 0.0316 µM) | IC50 (second compound 0.1 µM) | IC50 (second compound 0.316 µM) | IC50 (second compound 1 µM)
inactive: viability, T/C [1] 92.5% | viability, T/C [2] 98% | viability, T/C [3] 92.8% | viability, T/C [4] 89.2% | viability, T/C [5] 79.9% | viability, T/C [6] 75% | viability, T/C [7] 94.9% | viability, T/C [8] 85.9% | viability, T/C [9] 87.2% | viability, T/C [10] 83.3% | viability, T/C [11] 81.6% | viability, T/C [12] 78.6% | viability, T/C [13] 88.3% | viability, T/C [14] 85.8% | viability, T/C [15] 88.2% | viability, T/C [16] 86.2% | viability, T/C [17] 87.3% | viability, T/C [18] 71.8% | viability, T/C [19] 98.6% | viability, T/C [20] 89.8% | viability, T/C [21] 97.3% | viability, T/C [22] 99.5% | viability, T/C [23] 103% | viability, T/C [24] 74.1% | viability, T/C [25] 112% | viability, T/C [26] 103% | viability, T/C [27] 101% | viability, T/C [28] 107% | viability, T/C [29] 102% | viability, T/C [30] 76% | viability, T/C [31] 116% | viability, T/C [32] 93.6% | viability, T/C [33] 108% | viability, T/C [34] 94.2% | viability, T/C [35] 87.3% | viability, T/C [36] 58%

Nc1ccn(C2OC(CO)C(O)C2(F)F)c(=O)n1 (stereo unspecified) + C=CC(=O)N1CCN(c2nc(OCC3CCCN3C)nc3c(F)c(-c4nc(N)cc(C)c4C(F)(F)F)c(Cl)cc23)C(C)C1
7.1 nM: IC50 (second compound 0.0316 µM)
7.24 nM: IC50 (second compound 0.01 µM)
7.3 nM: IC50 (second compound 0.316 µM)
6.89 nM: IC50 (second compound 1 µM)
active: viability, T/C [1] 6.39% | viability, T/C [2] 4.85% | viability, T/C [3] 5.1% | viability, T/C [4] 4.69% | viability, T/C [7] 5.64% | viability, T/C [8] 4.72% | viability, T/C [9] 4.8% | viability, T/C [10] 4.83% | viability, T/C [13] 7.07% | viability, T/C [14] 5.22% | viability, T/C [15] 4.65% | viability, T/C [16] 4.83% | viability, T/C [19] 6.93% | viability, T/C [20] 4.35% | viability, T/C [21] 4.72% | viability, T/C [22] 4.89% | viability, T/C [25] 6.17% | viability, T/C [26] 5.08% | viability, T/C [27] 5.71% | viability, T/C [28] 4.45% | viability, T/C [31] 8.63% | viability, T/C [32] 5.29% | viability, T/C [33] 6.52% | viability, T/C [34] 5.69%
6.99 nM: IC50 (second compound 0.1 µM)
inactive: viability, T/C (second compound 0.00316 µM, first compound 0.00316 µM) 110% | viability, T/C (second compound 0.00316 µM, first compound 0.01 µM) 34.5% | viability, T/C (second compound 0.01 µM, first compound 0.00316 µM) 107% | viability, T/C (second compound 0.01 µM, first compound 0.01 µM) 27.9% | viability, T/C (second compound 0.0316 µM, first compound 0.00316 µM) 103% | viability, T/C (second compound 0.0316 µM, first compound 0.01 µM) 27.9% | viability, T/C (second compound 0.1 µM, first compound 0.00316 µM) 96% | viability, T/C (second compound 0.1 µM, first compound 0.01 µM) 29.2% | viability, T/C (second compound 0.316 µM, first compound 0.00316 µM) 103% | viability, T/C (second compound 0.316 µM, first compound 0.01 µM) 30.1% | viability, T/C (second compound 1 µM, first compound 0.00316 µM) 104% | viability, T/C (second compound 1 µM, first compound 0.01 µM) 24%
7.89 nM: IC50 (second compound 0.00316 µM)
